The experiment deals with T1, KRAS G12C 1-169, his-tagged protein, GDP-loaded (Homo sapiens, UniProt P01116, G12C).
T1 construct: KRAS G12C 1-169, his-tagged protein, GDP-loaded
T1 sequence (P01116 1-169 isoform P01116-2 G12C): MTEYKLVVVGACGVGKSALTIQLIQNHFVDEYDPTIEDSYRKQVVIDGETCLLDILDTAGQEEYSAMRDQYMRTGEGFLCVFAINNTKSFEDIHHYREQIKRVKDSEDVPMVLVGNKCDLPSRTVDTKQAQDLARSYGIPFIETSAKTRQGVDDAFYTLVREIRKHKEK
Nature of the experiment: Biochemical assay: covalent binding to KRAS G12C analyzed by mass spectrometry. Further: test concentration or dose not given here. The note with it: compounds 48-246, measured at 2 h.
Turning to `C=CC(=O)N1CCN(c2ncnc3cc(-c4ccc(F)cc4)c(Cl)cc23)CC1` [Compound I-83, 1-(4-(6-chloro-7-(4-fluorophenyl)quinazolin-4-yl)piperazin-1-yl)prop-2-en-1-one], the Binding % entry was “++ (++indicates binding activity greater than 25% and up to 50%)”.

As to `C=CC(=O)N1CCN(c2ncnc3cc(-c4cccc(F)c4)c(Cl)cc23)CC1` [Compound I-84, 1-(4-(6-chloro-7-(3-fluorophenyl)quinazolin-4-yl)piperazin-1-yl)prop-2-en-1-one], the Binding % result was “++ (++indicates binding activity greater than 25% and up to 50%)”.

In the case of `C=CC(=O)N1CCN(c2ncnc3cc(-c4ccccc4)c(Cl)cc23)CC1CC#N` (stereo not drawn) [Compound I-85, 2-(1-acryloyl-4-(6-chloro-7-phenylquinazolin-4-yl)piperazin-2-yl)acetonitrile], the Binding % entry was “+++ (+++indicates binding activity greater than 50% and up to 75%)”.

Regarding `C=CC(=O)N1CCN(c2ncnc3cc(-c4ccccc4)c(C4CC4)cc23)CC1` [Compound I-86, 1-(4-(6-cyclopropyl-7-phenylquinazolin-4-yl)piperazin-1-yl)prop-2-en-1-one], the Binding % result is listed as “+ (+indicates binding activity from 5% to 25%)”.

Regarding `C=CC(=O)N1CCN(c2ncnc3cc(-c4ccccc4)ccc23)CC1` [Compound I-87], the Binding % entry was “+ (+indicates binding activity from 5% to 25%)”.

Regarding `C=CC(=O)N1CCN(c2nccc3cc(-c4ccccc4)c(Cl)cc23)CC1` [Compound I-88, 1-(4-(7-chloro-6-phenylisoquinolin-1-yl)piperazin-1-yl)prop-2-en-1-one], the Binding % result is “+ (+indicates binding activity from 5% to 25%)”.

As to `C=CC(=O)NC1CCN(c2ncnc3cc(-c4ccccc4)c(Cl)cc23)CC1` [Compound I-89, N-(1-(6-chloro-7-phenylquinazolin-4-yl)piperidin-4-yl)acrylamide], the Binding % entry is recorded as “+ (+indicates binding activity from 5% to 25%)”.

In the case of `C=CC(=O)N1CCN(c2ncnc3cc(-c4cccnc4)c(Cl)cc23)CC1` [Compound I-90, 1-(4-(6-chloro-7-(pyridin-3-yl)quinazolin-4-yl)piperazain-1-yl)prop-2-en-1-one], the Binding % entry is “+ (+indicates binding activity from 5% to 25%)”.

As for `C=CC(=O)N1CCN(c2ccnc3cc(-c4ccccc4)c(Cl)cc23)CC1` [Compound I-91, 1-(4-(6-chloro-7-phenylquinolin-4-yl)piperazin-1-yl)prop-2-en-1-one], the Binding % result was “++ (++indicates binding activity greater than 25% and up to 50%)”.

For the compound `C=CC(=O)N1CCN(c2ncnc3cc(-c4ccccn4)c(Cl)cc23)CC1` [Compound I-92, 1-(4-(6-chloro-7-(pyridin-2-yl)quinazolin-4-yl)piperazin-1-yl)prop-2-en-1-one], the Binding % entry was “+ (+indicates binding activity from 5% to 25%)”.

For the compound `C=CC(=O)N1CCN(c2ncnc3cc(-c4ccccc4)c(CC)cc23)CC1` [Compound I-93, 1-(4-(6-ethyl-7-phenylquinazolin-4-yl)piperazin-1-yl)prop-2-en-1-one], the Binding % entry is “+ (+indicates binding activity from 5% to 25%)”.

On to `C=CC(=O)N1CCN(c2nc(OC)nc3cc(-c4ccccc4)c(Cl)cc23)CC1` [Compound I-94, 1-(4-(6-chloro-2-methoxy-7-phenylquinazolin-4-yl)piperazin-1-yl)prop-2-en-1-one], for which the Binding % entry was “++ (++indicates binding activity greater than 25% and up to 50%)”.

In the case of `C=CC(=O)N1CCN(c2nc(C)nc3cc(-c4ccccc4)c(Cl)cc23)CC1` [Compound I-95, 1-(4-(6-chloro-2-methyl-7-phenylquinazolin-4-yl)piperazin-1-yl)prop-2-en-1-one], the Binding % entry is “++ (++indicates binding activity greater than 25% and up to 50%)”.

Consider `C=CC(=O)N1CC(Nc2ncnc3cc(-c4ccccc4)c(Cl)cc23)C1` [Compound I-96, 1-(3-(6-chloro-7-phenylquinazolin-4-ylamino)azetidin-1-yl)prop-2-en-1-one], for which the Binding % result is given as “+ (+indicates binding activity from 5% to 25%)”.

With `C=CC(=O)N1CCN(c2ncnc3cc(-c4ccccc4OC)c(Cl)cc23)CC1` [Compound I-97, 1-(4-(6-chloro-7-(2-methoxyphenyl)quinazolin-4-yl)piperazin-1-yl)prop-2-en-1-one], the Binding % result is “++ (++indicates binding activity greater than 25% and up to 50%)”.

For `C=CC(=O)N1CCN(c2ncnc3cc(-c4ccccc4C(N)=O)c(Cl)cc23)CC1` [Compound I-98, 2-(4-(4-acryloylpiperazin-1-yl)-6-chloroquinazolin-7-yl)benzamide], the Binding % entry is listed as “+ (+indicates binding activity from 5% to 25%)”.

Regarding `C=CC(=O)N1CCN(c2ncnc3cc(-c4ccccc4C(C)C)c(Cl)cc23)CC1` [Compound I-99, 1-(4-(6-chloro-7-(2-isopeopylphenyl)quinazolin-4-yl)piperazin-1-yl)prop-2-en-1-one], the Binding % entry was “+++ (+++indicates binding activity greater than 50% and up to 75%)”.

For the compound `C=CC(=O)N1CCN(c2ncnc3cc(-c4ccccc4C(F)(F)F)c(Cl)cc23)CC1` [Compound I-100, 1-(4-(6-chloro-7-(2-(trifluoromethyl)phenyl)quinazolin-4-yl)piperazin-1-yl)prop-2-en-1-one], the Binding % result was “+++ (+++indicates binding activity greater than 50% and up to 75%)”.

Turning to `C=CC(=O)N1CCN(c2ncnc3cc(-c4cc(Cl)ccc4Cl)c(Cl)cc23)CC1` [Compound I-101, 1-(4-(6-chloro-7-(2,5-dichlorophenyl)quinazolin-4-yl)piperazin-1-yl)prop-2-en-1-one], the Binding % result is “+++ (+++indicates binding activity greater than 50% and up to 75%)”.

In the case of `C=CC(=O)N1CCN(c2ncnc3cc(-c4ccc(Cl)cc4Cl)c(Cl)cc23)CC1` [Compound I-102, 1-(4-(6-chloro-7-(2,4-dichlorophenyl)quinazolin-4-yl)piperazin-1-yl)prop-2-en-1-one], the Binding % result was “+++ (+++indicates binding activity greater than 50% and up to 75%)”.

Turning to `C=CC(=O)N1CCN(c2ncnc3cc(-c4ccccc4COC)c(Cl)cc23)CC1` [Compound I-103, 1-(4-(6-chloro-7-(2-(methoxymethyl)phenyl)quinazolin-4-yl)piperazin-1-yl)prop-2-en-1-one], the Binding % entry is “++ (++indicates binding activity greater than 25% and up to 50%)”.

Consider `C=CC(=O)N1CCN(c2ncnc3cc(-c4ccccc4)c(Cl)cc23)CC1C(N)=O` (stereo not drawn) [Compound I-104, 1-acryloyl-4-(6-chloro-7-phenylquinazolin-4-yl)piperazine-2-carboxamide], for which the Binding % result was “+++ (+++indicates binding activity greater than 50% and up to 75%)”.

For the compound `C=CC(=O)N1CCN(c2ncnc3cc(-c4ccccc4C#N)c(Cl)cc23)CC1` [Compound I-105, 2-(4-(4-acryloylpiperazin-1-yl)-6-chloroquinazolin-7-yl)benzonitrile], the Binding % entry was “+ (+indicates binding activity from 5% to 25%)”.

Take `C=CC(=O)N1CCN(c2ncnc3cc(-c4ccccc4F)c(Cl)cc23)CC1CC#N` (stereo not drawn) [Compound I-106]: the Binding % result is given as “++++ (++++indicates binding activity greater than 75%)”.

For the compound `C=CC(=O)N1CCN(c2ncnc3cc(-c4ccccc4CC)c(Cl)cc23)CC1CC#N` (stereo not drawn) [Compound I-107, 2-(1-acryloyl-4-(6-chloro-7-(2-ethylphenyl)quinazolin-4-yl)piperazin-2-yl)acetonitrile], the Binding % result is recorded as “++++ (++++indicates binding activity greater than 75%)”.

For `C=CC(=O)N1CCN(c2ncnc3cc(-c4ccccc4CO)c(Cl)cc23)CC1` [Compound I-108, 1-(4-(6-chloro-7-(2-(hydroxymethyl)phenyl)quinazolin-4-yl)piperazin-1-yl)prop-2-en-1-one], the Binding % entry was “++ (++indicates binding activity greater than 25% and up to 50%)”.

Consider `C=CC(=O)N1CCN(c2ncnc3cc(-c4ccccc4Cl)c(Cl)cc23)CC1CC#N` (stereo not drawn) [Compound I-109, 2-(1-acryloyl-4-(6-chloro-7-(2-chlorophenyl)quinazolin-4-yl)piperazin-2-yl)acetonitrile], for which the Binding % result is “++++ (++++indicates binding activity greater than 75%)”.

With `C=CC(=O)N1CCN(c2ncnc3cc(-c4ccc(Cl)cc4)c(Cl)cc23)CC1CC#N` (stereo not drawn) [Compound I-110, 2-(1-acryloyl-4-(6-chloro-7-(4-chlorophenyl)quinazolin-4-yl)piperazin-2-yl)acetonitrile], the Binding % entry is “+++ (+++indicates binding activity greater than 50% and up to 75%)”.

For the compound `C=CC(=O)N1CCN(c2ncnc3cc(-c4ccc(Cl)cc4)c(Cl)cc23)CC1CC#N` (stereo not drawn) [Compound I-111, 2-(1-acryloyl-4-(6-chloro-7-(4-chlorophenyl)quinazolin-4-yl)piperazin-2-yl)acetonitrile], the Binding % entry is “+++ (+++indicates binding activity greater than 50% and up to 75%)”.

In the case of `C=CC(=O)N1CCN(c2ncnc3cc(-c4ccc(F)cc4F)c(Cl)cc23)CC1` [Compound I-112, 1-(4-(6-chloro-7-(2,4-difluorophenyl)quinazolin-4-yl)piperazin-1-yl)prop-2-en-1-one], the Binding % entry is “+++ (+++indicates binding activity greater than 50% and up to 75%)”.

As to `C=CC(=O)N1CCN(c2ncnc3cc(-c4cc(F)ccc4F)c(Cl)cc23)CC1` [Compound I-113, 1-(4-(6-chloro-7-(2,5-difluorophenyl)quinazolin-4-yl)piperazin-1-yl)prop-2-en-1-one], the Binding % result was “+++ (+++indicates binding activity greater than 50% and up to 75%)”.

As for `C=CC(=O)N1CCN(c2ncnc3cc(-c4ccc(Cl)cc4F)c(Cl)cc23)CC1` [Compound I-114, 1-(4-(6-chloro-7-(4-chloro-2-fluorophenyl)quinazolin-4-yl)piperazin-1-yl)prop-2-en-1-one], the Binding % result was “+++ (+++indicates binding activity greater than 50% and up to 75%)”.

On to `C=CC(=O)N1CCN(c2ncnc3cc(-c4cc(Cl)ccc4F)c(Cl)cc23)CC1` [Compound I-115, 1-(4-(6-chloro-7-(5-chloro-2-fluorophenyl)quinazolin-4-yl)piperazin-1-yl)prop-2-en-1-one], for which the Binding % result is “+++ (+++indicates binding activity greater than 50% and up to 75%)”.

The values are drawn from patent publication US10111874B2, “Combination therapies for treatment of cancer” (Araxes Pharma LLC, priority 2014, dated 2018).
